“And” between values parts separate entries of the source, which are not always exact repeats. Equal values may be shown once. Toxic doses and inconclusive results are not listed.
System: P388 leukemia ip, CD2F1 mice, survival T/C
Experiment: NCI In Vivo Anticancer Drug Screen. Data for tumor model P388 Leukemia (intraperitoneal) in CD2F1 (CDF1) mice
Settings: endpoint: median survival time, higher = longer survival
Method in brief: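 Mice carrying the transplanted tumor received test compound or vehicle. Survival was recorded in each group, and the value is the treated-group measurement divided by that of the vehicle-treated control group.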

[1] = dose: 50.0 mg/kg/injection, schedule: Q01DX005 (ip), vehicle: Klucel (hydroxypropylcellulose) (HPC)
[2] = dose: 100.0 mg/kg/injection, schedule: Q01DX005 (ip), vehicle: Klucel (hydroxypropylcellulose) (HPC)
[3] = dose: 200.0 mg/kg/injection, schedule: Q01DX005 (ip), vehicle: Klucel (hydroxypropylcellulose) (HPC)
[4] = dose: 50.0 mg/kg/injection, schedule: Q01DX009 (ip), vehicle: saline with Tween-80
[5] = dose: 100.0 mg/kg/injection, schedule: Q01DX009 (ip), vehicle: saline with Tween-80
[6] = dose: 25.0 mg/kg/injection, schedule: Q01DX009 (ip), vehicle: saline sonified
[7] = dose: 50.0 mg/kg/injection, schedule: Q01DX009 (ip), vehicle: saline sonified
[8] = dose: 100.0 mg/kg/injection, schedule: Q01DX009 (ip), vehicle: saline sonified

SMILES: CC(=O)N(C)c1ccc(N)c2c1C(=O)c1ccccc1C2=O
- T/C [1]: 106 % of control
- T/C [2]: 94 % of control
- T/C [3]: 106 % of control

SMILES: COC(=O)c1[nH]c(=O)[nH]c(=O)c1F
- T/C (dose: 8.0 mg/kg/injection, schedule: Q01DX009 (ip), vehicle: saline with Tween-80): 118 % of control
- T/C (dose: 16.0 mg/kg/injection, schedule: Q01DX009 (ip), vehicle: saline with Tween-80): 104 % of control
- T/C (dose: 22.0 mg/kg/injection, schedule: Q04DX003 (ip), vehicle: saline with Tween-80): 110 % of control
- T/C (dose: 25.0 mg/kg/injection, schedule: Q01DX009 (ip), vehicle: saline with Tween-80): 100 % of control
- T/C [4]: 100 % of control
- T/C (dose: 50.0 mg/kg/injection, schedule: Q04DX003 (ip), vehicle: saline with Tween-80): 155 % of control
- T/C [5]: 90 % of control

SMILES: Cc1ccc2ccc(N(C)C)cc2n1
- T/C [4]: 100 % of control
- T/C [5]: 107 % of control

SMILES: COc1ccc(C[n+]2ccccc2C#N)cc1OC
- T/C [1]: 103 % of control
- T/C [2]: 107 % of control

SMILES: COC(=O)c1nc(N)nc(C(=O)OC)c1C(=O)c1ccc(F)cc1
- T/C (dose: 60.0 mg/kg/injection, schedule: Q01DX005 (ip), vehicle: Klucel (hydroxypropylcellulose) (HPC)): 101 % of control
- T/C (dose: 120.0 mg/kg/injection, schedule: Q01DX005 (ip), vehicle: Klucel (hydroxypropylcellulose) (HPC)): 102 % of control

SMILES: CN(C)C(=O)C1OC1(C)c1ccccc1 (stereo not given)
- T/C (dose: 100.0 mg/kg/injection, schedule: Q04DX003 (ip), vehicle: Klucel (hydroxypropylcellulose) (HPC)): 103 % of control
- T/C (dose: 200.0 mg/kg/injection, schedule: Q04DX003 (ip), vehicle: Klucel (hydroxypropylcellulose) (HPC)): 108 % of control
- T/C (dose: 400.0 mg/kg/injection, schedule: Q04DX003 (ip), vehicle: Klucel (hydroxypropylcellulose) (HPC)): 117 % of control

SMILES: N#CC1=CN(Cc2ccc3c(c2)OCO3)C=CC1
- T/C (dose: 50.0 mg/kg/injection, schedule: Q01DX005 (ip), vehicle: Klucel + Tween-80): 100 % of control
- T/C (dose: 100.0 mg/kg/injection, schedule: Q01DX005 (ip), vehicle: Klucel + Tween-80): 98 % of control
- T/C (dose: 200.0 mg/kg/injection, schedule: Q01DX005 (ip), vehicle: Klucel + Tween-80): 92 % of control

SMILES: Brc1cc(-c2ccccc2)ccc1OCC1CO1 (stereo not given)
- T/C [1]: 101 % of control
- T/C [2]: 108 % of control
- T/C [3]: 97 % of control

SMILES: Cc1cc(=O)[nH]c(/N=C(/N)N(C)C)n1
- T/C (dose: 50.0 mg/kg/injection, schedule: Q01DX009 (ip), vehicle: saline): 101 % of control
- T/C (dose: 100.0 mg/kg/injection, schedule: Q01DX009 (ip), vehicle: saline): 98 % of control
- T/C (dose: 200.0 mg/kg/injection, schedule: Q01DX009 (ip), vehicle: saline): 108 % of control

SMILES: Cc1nc2c(cnn2C)c(=O)n1Cc1ccccc1
- T/C [1]: 104 % of control
- T/C [2]: 97 % of control
- T/C [3]: 103 % of control

SMILES: COc1cc2c(cc1OC)C1CCN3C(=O)CCC3[N+]1(C)CC2 (stereo not given)
- T/C [6]: 90 % of control
- T/C [7]: 90 % of control
- T/C [8]: 90 % of control

SMILES: COc1cc(-c2[o+]c3cc(O)cc(O)c3cc2OC2OC(CO)C(O)C(O)C2O)cc(OC)c1O (stereo not given)
- T/C [6]: 100 % of control
- T/C [7]: 100 % of control
- T/C [8]: 100 % of control

SMILES: Cc1ccccc1-n1c(C)nc2[nH]ncc2c1=O
- T/C [1]: 105 % of control
- T/C [2]: 98 % of control
- T/C [3]: 96 % of control

SMILES: CN(C)C(=O)NO
- T/C (dose: 60.0 mg/kg/injection, schedule: Q01DX005 (ip), vehicle: saline): 103 % of control
- T/C (dose: 120.0 mg/kg/injection, schedule: Q01DX005 (ip), vehicle: saline): 99 % of control
- T/C (dose: 240.0 mg/kg/injection, schedule: Q01DX005 (ip), vehicle: saline): 97 % of control

SMILES: COc1cc(/C=C2\SC(=S)N(c3ccc(Cl)c(Cl)c3)C2=O)ccc1O
- T/C [1]: 89 % of control
- T/C [2]: 86 % of control
- T/C [3]: 89 % of control

SMILES: CC(=O)N=C1CSc2ccccc2N1C
- T/C (dose: 50.0 mg/kg/injection, schedule: Q01DX005 (ip), vehicle: saline + alcohol): 99 % of control
- T/C (dose: 100.0 mg/kg/injection, schedule: Q01DX005 (ip), vehicle: saline + alcohol): 103 % of control
- T/C (dose: 200.0 mg/kg/injection, schedule: Q01DX005 (ip), vehicle: saline + alcohol): 109 % of control

SMILES: CN(C)[C](=[Au][Cl])c1ccccc1
- T/C (dose: 25.0 mg/kg/injection, schedule: Q04DX002 (ip), vehicle: Klucel (hydroxypropylcellulose) (HPC)): 109 % of control
- T/C (dose: 50.0 mg/kg/injection, schedule: Q04DX002 (ip), vehicle: Klucel (hydroxypropylcellulose) (HPC)): 111 % of control
- T/C (dose: 100.0 mg/kg/injection, schedule: Q04DX002 (ip), vehicle: Klucel (hydroxypropylcellulose) (HPC)): 108 % of control and 96 % of control

SMILES: O=S(=O)(O)O.[NH-]C1CCCC1[NH-].[Pt+2] (stereo not given)
- T/C (dose: 6.25 mg/kg/injection, schedule: Q04DX002 (ip), vehicle: saline): 177 % of control and 195 % of control
- T/C (dose: 12.5 mg/kg/injection, schedule: Q04DX002 (ip), vehicle: saline): 180 % of control and 202 % of control
- T/C (dose: 12.5 mg/kg/injection, schedule: Q04DX002 (ip), vehicle: suspension in saline): 191 % of control
- T/C (dose: 25.0 mg/kg/injection, schedule: Q04DX002 (ip), vehicle: saline): 198 % of control and 194 % of control

SMILES: O=C1c2ccccc2C(=O)N1c1ccc(Cl)cc1[N+](=O)[O-]
- T/C (dose: 100.0 mg/kg/injection, schedule: Q04DX002 (ip), vehicle: saline): 99 % of control
- T/C (dose: 200.0 mg/kg/injection, schedule: Q04DX002 (ip), vehicle: saline): 99 % of control
- T/C (dose: 400.0 mg/kg/injection, schedule: Q04DX002 (ip), vehicle: saline): 97 % of control

SMILES: CCNC(=O)OCc1c(COC(=O)NCC)c(-c2ccc(Cl)c(Cl)c2)n2c1CCC2
- T/C (dose: 2.5 mg/kg/injection, schedule: Q01DX009 (ip), vehicle: distilled water + Tween-80): 152 % of control
- T/C (dose: 6.25 mg/kg/injection, schedule: Q01DX009 (ip), vehicle: saline with Tween-80): 154 % of control and 168 % of control
- T/C (dose: 10.0 mg/kg/injection, schedule: Q01DX009 (ip), vehicle: distilled water + Tween-80): 180 % of control
- T/C (dose: 12.5 mg/kg/injection, schedule: Q01DX009 (ip), vehicle: saline with Tween-80): 166 % of control and 168 % of control and 170 % of control
- T/C (dose: 20.0 mg/kg/injection, schedule: Q01DX009 (ip), vehicle: distilled water + Tween-80): 90 % of control

SMILES: COc1ccc(Cc2ccccc2CO)c2ccccc12
- T/C (dose: 100.0 mg/kg/injection, schedule: Q01DX001 (ip), vehicle: Klucel (hydroxypropylcellulose) (HPC)): 100 % of control
- T/C (dose: 200.0 mg/kg/injection, schedule: Q01DX001 (ip), vehicle: Klucel (hydroxypropylcellulose) (HPC)): 100 % of control
- T/C (dose: 400.0 mg/kg/injection, schedule: Q01DX001 (ip), vehicle: Klucel (hydroxypropylcellulose) (HPC)): 100 % of control

SMILES: C(=N\n1cnnc1)/c1ccccc1/C=N/n1cnnc1
- T/C [5]: 100 % of control
- T/C (dose: 200.0 mg/kg/injection, schedule: Q01DX009 (ip), vehicle: saline with Tween-80): 90 % of control
- T/C (dose: 400.0 mg/kg/injection, schedule: Q01DX009 (ip), vehicle: saline with Tween-80): 100 % of control

SMILES: CC(C)(C)[Si](C)(C)OC(=O)Nc1ccc(N(CCCl)CCCl)cc1
- T/C (dose: 0.05 mg/kg/injection, schedule: Q01DX009 (ip), vehicle: saline with Tween-80): 122 % of control
- T/C (dose: 0.07 mg/kg/injection, schedule: Q01DX009 (ip), vehicle: saline with Tween-80): 105 % of control
- T/C (dose: 0.11 mg/kg/injection, schedule: Q01DX009 (ip), vehicle: saline with Tween-80): 118 % of control
- T/C (dose: 0.16 mg/kg/injection, schedule: Q01DX009 (ip), vehicle: saline with Tween-80): 123 % of control
- T/C (dose: 5.0 mg/kg/injection, schedule: Q04DX003 (ip), vehicle: distilled water + Tween-80): 153 % of control and 165 % of control
- T/C (dose: 10.0 mg/kg/injection, schedule: Q04DX003 (ip), vehicle: distilled water + Tween-80): 158 % of control and 161 % of control and 203 % of control
- T/C (dose: 40.0 mg/kg/injection, schedule: Q04DX003 (ip), vehicle: distilled water + Tween-80): 100 % of control
- T/C (dose: 1.5 micrograms/kg/injection, schedule: Q01DX009 (ip), vehicle: saline): 95 % of control
- T/C (dose: 3.1 micrograms/kg/injection, schedule: Q01DX009 (ip), vehicle: saline): 97 % of control
- T/C (dose: 6.2 micrograms/kg/injection, schedule: Q01DX009 (ip), vehicle: saline): 102 % of control
- T/C (dose: 12.5 micrograms/kg/injection, schedule: Q01DX009 (ip), vehicle: saline): 104 % of control
- T/C (dose: 25.0 micrograms/kg/injection, schedule: Q01DX009 (ip), vehicle: saline): 94 % of control
- T/C (dose: 50.0 micrograms/kg/injection, schedule: Q01DX009 (ip), vehicle: saline): 110 % of control

SMILES: Cc1ccc2nc(N(C)C)[nH]c2c1
- T/C (dose: 50.0 mg/kg/injection, schedule: Q01DX005 (ip), vehicle: other): 105 % of control
- T/C (dose: 100.0 mg/kg/injection, schedule: Q01DX005 (ip), vehicle: other): 109 % of control
